From patent publication US9820972B2, “Antiviral compounds highly effective as HCV-NS5A inhibitor” (priority 2013, dated 2017) come the findings set out here.

The test system of the test is GT-1a of NS5A Replicon. The experiment in a line: HCV double reporter gene (Renilla luciferase) replicon assay, GT-1a. In kind it is cell-based, Hepatitis C virus (HCV). The note with it: Hepatitis C virus, GT1A, GT-1a replicon; class symbols; read-out: EC50 For GT-1a of NS5A Replicon. As for the experimental part:
Antiviral Assay for Inhibition Activity (EC50):
The study is completed by a new constructed double reporter genes replicon assay system, the capacity of viral replicon in infected cell is determined by detecting the reporter gene Renilla luciferase. The relationship of reporter genes, HCV RNA replicon and viral proteins is well linear. 8 gradient concentrations for 2-fold dilution, 3 wells, 3 times repetition and 1 or 2 control drugs are set to finally determine EC50 of compound.
THF was distilled from sodium metal and benzophenone. DCM, pentane and hexane were distilled form calcium hydride. Special raw material and intermediate in the invention were ordered by contract synthesis from Zannan SciTech Co., Let in China, others reagents were purchased from Shanghai reagent company, Aldrich, Acros etc. As intermediates or products during the synthesis is not required for the reaction and other tests the next step, the synthesis is repeated until a sufficient number of times. The invention of the prepared compounds of […] (HCV NS5A) inhibitory activity test was performed by CRO service units such as WuXi AppTec etc.

For `COC(=O)N[C@H](C(=O)N1C[C@H](OC(=O)N2Cc3ccc4c(c3C2)OCO4)CC1c1ncc(-c2ccc(-c3ccc(-c4c[nH]c([C@@H]5CCCN5C(=O)[C@@H](NC(=O)OC)C(C)C)n4)cc3)cc2)[nH]1)C(C)C` (some centres unmarked) [Compound 6a], the EC50 (in general, the concentration giving half of the maximal effect) was in the range of 1 to 999 pM. In the case of `COC(=O)N[C@H](C(=O)N1CCCC1c1nc(-c2ccc(-c3ccc(-c4c[nH]c([C@@H]5CCCN5C(=O)C5(NC(=O)OC)CCCCC5)n4)cc3)cc2)c[nH]1)C(C)C` (some centres unmarked) [Compound 6aa], the EC50 was 1 to 999 pM. Turning to `COC(=O)N[C@H](C(=O)N1CCCC1c1nc(-c2ccc(-c3ccc(-c4c[nH]c([C@@H]5CCCCN5C(=O)[C@@H](NC(=O)OC)C(C)C)n4)cc3)cc2)c[nH]1)C(C)C` (some centres unmarked) [Compound 6ab], the EC50 was 1 to 999 pM. With `COC(=O)N[C@H](C(=O)N1C[C@@H](OC(=O)N2Cc3cc4c(cc3C2)OCO4)CC1c1nc(-c2ccc(-c3ccc(-c4c[nH]c([C@@H]5CCCCN5C(=O)[C@@H](NC(=O)OC)C(C)C)n4)cc3)cc2)c[nH]1)C(C)C` (some centres unmarked) [Compound 6ac], the concentration giving a half-maximal response (EC50) was 1 to 999 pM. On to `COC(=O)N[C@H](C(=O)N1C[C@@H](OC(=O)N2Cc3ccc4c(c3C2)OCO4)CC1c1nc(-c2ccc(-c3ccc(-c4c[nH]c([C@@H]5CCCCN5C(=O)[C@@H](NC(=O)OC)C(C)C)n4)cc3)cc2)c[nH]1)C(C)C` (some centres unmarked) [Compound 6ad], for which the EC50 was 1 to 999 pM. `COC(=O)N[C@H](C(=O)N1CN(C(=O)N2Cc3ccc4c(c3C2)OCO4)CC1c1nc(-c2ccc(-c3ccc(-c4c[nH]c([C@@H]5CCCN5C(=O)[C@@H](NC(=O)OC)C(C)C)n4)cc3)cc2)c[nH]1)C(C)C` (some centres unmarked) [Compound 6ae]: the EC50 lay in the range of 1 to 999 pM.

Take `COC(=O)N[C@H](C(=O)N1CN(C(=O)N2Cc3cc4c(cc3C2)OCO4)CC1c1nc(-c2ccc(-c3ccc(-c4c[nH]c([C@@H]5CCCN5C(=O)[C@@H](NC(=O)OC)C(C)C)n4)cc3)cc2)c[nH]1)C(C)C` (some centres unmarked) [Compound 6af]: the half-maximal effective concentration (EC50) lay in the range of 1 to 999 pM. As to `COC(=O)N[C@H](C(=O)N1CCCC1c1nc(-c2ccc(-c3ccc(-c4c[nH]c([C@@H]5COCCN5C(=O)[C@@H](NC(=O)OC)C(C)C)n4)cc3)cc2)c[nH]1)C(C)C` (some centres unmarked) [Compound 6ag], the EC50 was in the range of 1 to 999 pM. In the case of `COC(=O)N[C@H](C(=O)N1C[C@@H](OC(=O)N2Cc3cc4c(cc3C2)OCO4)CC1c1nc(-c2ccc(-c3ccc(-c4c[nH]c([C@@H]5COCCN5C(=O)[C@@H](NC(=O)OC)C(C)C)n4)cc3)cc2)c[nH]1)C(C)C` (some centres unmarked) [Compound 6ah], the half-maximal effective concentration (EC50) lay in the range of 1 to 999 pM.

Regarding `COC(=O)N[C@H](C(=O)N1C[C@@H](OC(=O)N2Cc3ccc4c(c3C2)OCO4)CC1c1nc(-c2ccc(-c3ccc(-c4c[nH]c([C@@H]5COCCN5C(=O)[C@@H](NC(=O)OC)C(C)C)n4)cc3)cc2)c[nH]1)C(C)C` (some centres unmarked) [Compound 6ai], the EC50 is 1 to 999 pM. Consider `COC(=O)N[C@H](C(=O)N1CCCCC1c1nc(-c2ccc(-c3ccc(-c4c[nH]c([C@@H]5COCCN5C(=O)[C@@H](NC(=O)OC)C(C)C)n4)cc3)cc2)c[nH]1)C(C)C` (some centres unmarked) [Compound 6aj], for which the concentration giving a half-maximal response (EC50) was 1 to 999 pM. `COC(=O)N[C@H](C(=O)N1CC(OC(=O)N2Cc3cc4c(cc3C2)OCO4)CC1c1nc(-c2ccc(-c3ccc(-c4c[nH]c([C@@H]5CC6(CC6)CN5C(=O)[C@@H](NC(=O)OC)C(C)C)n4)cc3)cc2)c[nH]1)C(C)C` (some centres unmarked) [Compound 6ak]: the EC50 is 1 to 999 pM. `COC(=O)N[C@H](C(=O)N1CN(C(=O)N2Cc3cc4c(cc3C2)OCO4)CC1c1nc(-c2ccc(-c3ccc(-c4c[nH]c([C@@H]5CC6(CC6)CN5C(=O)[C@@H](NC(=O)OC)C(C)C)n4)cc3)cc2)c[nH]1)C(C)C` (some centres unmarked) [Compound 6am]: the EC50 fell in the range of 1 to 999 pM. The figure for `COC(=O)N[C@H](C(=O)N1CC(OC(=O)N2Cc3ccc4c(c3C2)OCO4)CC1c1nc(-c2ccc(-c3ccc(-c4c[nH]c([C@@H]5CC6(CC6)CN5C(=O)[C@@H](NC(=O)OC)C(C)C)n4)cc3)cc2)c[nH]1)C(C)C` (some centres unmarked) [Compound 6an] is 1 to 999 pM; for `COC(=O)N[C@H](C(=O)N1CN(C(=O)N2Cc3ccc4c(c3C2)OCO4)CC1c1nc(-c2ccc(-c3ccc(-c4c[nH]c([C@@H]5CC6(CC6)CN5C(=O)[C@@H](NC(=O)OC)C(C)C)n4)cc3)cc2)c[nH]1)C(C)C` (some centres unmarked) [Compound 6ap] it is 1 to 999 pM.

As to `COC(=O)N[C@H](C(=O)N1CN(C(=O)N2Cc3ccccc3C2)CC1c1nc(-c2ccc(-c3ccc(-c4c[nH]c([C@@H]5CCCN5C(=O)[C@@H](NC(=O)OC)C(C)C)n4)cc3)cc2)c[nH]1)C(C)C` (some centres unmarked) [Compound 6aq], the EC50 lay within 1 to 999 pM. For `COC(=O)N[C@H](C(=O)N1CN(C(=O)N2Cc3cccc(F)c3C2)CC1c1nc(-c2ccc(-c3ccc(-c4c[nH]c([C@@H]5CCCN5C(=O)[C@@H](NC(=O)OC)C(C)C)n4)cc3)cc2)c[nH]1)C(C)C` (some centres unmarked) [Compound 6ar], the EC50 lay in the range of 1 to 999 pM. Regarding `COC(=O)N[C@H](C(=O)N1CN(C(=O)N2Cc3ccc(F)cc3C2)CC1c1nc(-c2ccc(-c3ccc(-c4c[nH]c([C@@H]5CCCN5C(=O)[C@@H](NC(=O)OC)C(C)C)n4)cc3)cc2)c[nH]1)C(C)C` (some centres unmarked) [Compound 6as], the EC50 was 1 to 999 pM. For the molecule `COC(=O)N[C@H](C(=O)N1CN(C(=O)N2Cc3cccc(Cl)c3C2)CC1c1nc(-c2ccc(-c3ccc(-c4c[nH]c([C@@H]5CCCN5C(=O)[C@@H](NC(=O)OC)C(C)C)n4)cc3)cc2)c[nH]1)C(C)C` (some centres unmarked) [Compound 6at], the EC50 lay in the range of 1 to 999 pM. The figure for `COC(=O)N[C@H](C(=O)N1CN(C(=O)N2Cc3ccc(Cl)cc3C2)CC1c1nc(-c2ccc(-c3ccc(-c4c[nH]c([C@@H]5CCCN5C(=O)[C@@H](NC(=O)OC)C(C)C)n4)cc3)cc2)c[nH]1)C(C)C` (some centres unmarked) [Compound 6au] is 1 to 999 pM. In the case of `COC(=O)N[C@H](C(=O)N1CN(C(=O)N2Cc3ccc(OC)cc3C2)CC1c1nc(-c2ccc(-c3ccc(-c4c[nH]c([C@@H]5CCCN5C(=O)[C@@H](NC(=O)OC)C(C)C)n4)cc3)cc2)c[nH]1)C(C)C` (some centres unmarked) [Compound 6av], the EC50 is 1 to 999 pM. The figure for `COC(=O)N[C@H](C(=O)N1CN(C(=O)N2Cc3cccc(OC)c3C2)CC1c1nc(-c2ccc(-c3ccc(-c4c[nH]c([C@@H]5CCCN5C(=O)[C@@H](NC(=O)OC)C(C)C)n4)cc3)cc2)c[nH]1)C(C)C` (some centres unmarked) [Compound 6aw] is 1 to 999 pM.

For the molecule `COC(=O)N[C@H](C(=O)N1CN(C(=O)N2Cc3cc(OC)c(OC)cc3C2)CC1c1nc(-c2ccc(-c3ccc(-c4c[nH]c([C@@H]5CCCN5C(=O)[C@@H](NC(=O)OC)C(C)C)n4)cc3)cc2)c[nH]1)C(C)C` (some centres unmarked) [Compound 6ax], the EC50 is 1 to 999 pM. The figure for `COC(=O)NC(C(=O)N1CCC[C@H]1c1nc(-c2ccc(-c3ccc(-c4c[nH]c(C5CN(C(=O)N6Cc7ccc8c(c7C6)OCO8)CN5C(=O)[C@@H](NC(=O)OC)C(C)C)n4)cc3)cc2)c[nH]1)c1ccccc1` (some centres unmarked) [Compound 6ay] is 1 to 999 pM; for `COC(=O)N[C@H](C(=O)N1CC(OC(=O)N2Cc3cc4c(cc3C2)OCO4)CC1c1nc(-c2ccc3c(c2)Cc2cc(-c4c[nH]c([C@@H]5CCCN5C(=O)[C@@H](NC(=O)OC)C(C)C)n4)ccc2-3)c[nH]1)C(C)C` (some centres unmarked) [Compound 6az] it is 1 to 999 pM. The figure for `CC(C)[C@H](NC(=O)OC(C)(C)C)C(=O)N1CCC[C@H]1c1nc(-c2ccc(-c3ccc(-c4cnc([C@@H]5C[C@@H](OC(=O)N6Cc7ccc8c(c7C6)OCO8)CN5C(=O)[C@@H](NC(=O)OC(C)(C)C)C(C)C)[nH]4)cc3)cc2)c[nH]1` [Compound 6b] is more than 50000 pM; for `CC(C)[C@H](NC(=O)OC1CCCC1)C(=O)N1CC=CC1c1ncc(-c2ccc(-c3ccc(-c4c[nH]c([C@@H]5C=CCN5C(=O)[C@@H](NC(=O)OC5CCCC5)C(C)C)n4)cc3)cc2)[nH]1` (some centres unmarked) [Compound 6bf] it is more than 50000 pM; for `COC(=O)N[C@H](C(=O)N1CC=CC1c1nc(-c2ccc(-c3ccc(-c4c[nH]c([C@@H]5CCCN5C(=O)C5(NC(=O)OC)CC5)n4)cc3)cc2)c[nH]1)C(C)C` (some centres unmarked) [Compound 6bh] it is 1 to 999 pM. The figure for `COC(=O)N[C@H](C(=O)N1CC=CC1c1nc(-c2ccc(-c3ccc(-c4c[nH]c([C@@H]5CCCN5C(=O)C5(NC(=O)OC)CCCC5)n4)cc3)cc2)c[nH]1)C(C)C` (some centres unmarked) [Compound 6bi] is 1 to 999 pM; for `COC(=O)N[C@H](C(=O)N1CC=CC1c1nc(-c2ccc(-c3ccc(-c4c[nH]c([C@@H]5CCCN5C(=O)C5(NC(=O)OC)CCCCC5)n4)cc3)cc2)c[nH]1)C(C)C` (some centres unmarked) [Compound 6bj] it is 1 to 999 pM. On to `COC(=O)N[C@H](C(=O)N1CC=CC1c1nc(-c2ccc(-c3ccc(-c4c[nH]c([C@@H]5CCCCN5C(=O)[C@@H](NC(=O)OC)C(C)C)n4)cc3)cc2)c[nH]1)C(C)C` (some centres unmarked) [Compound 6bk], for which the EC50 lay within 1 to 999 pM. The figure for `COC(=O)N[C@H](C(=O)N1CC=CC1c1nc(-c2ccc(-c3ccc(-c4c[nH]c([C@@H]5COCCN5C(=O)[C@@H](NC(=O)OC)C(C)C)n4)cc3)cc2)c[nH]1)C(C)C` (some centres unmarked) [Compound 6bm] is 1 to 999 pM; for `COC(=O)N[C@H](C(=O)N1CC(OC(=O)N2Cc3cc4c(cc3C2)OCO4)CC1c1nc(-c2ccc3c(c2)oc2cc(-c4c[nH]c([C@@H]5CCCN5C(=O)[C@@H](NC(=O)OC)C(C)C)n4)ccc23)c[nH]1)C(C)C` (some centres unmarked) [Compound 6bn] it is 1 to 999 pM; for `COC(=O)N[C@H](C(=O)N1CC(OC(=O)N2Cc3cc4c(cc3C2)OCO4)CC1c1nc(-c2ccc3c(c2)C(F)(F)c2cc(-c4c[nH]c([C@@H]5CCCN5C(=O)[C@@H](NC(=O)OC)C(C)C)n4)ccc2-3)c[nH]1)C(C)C` (some centres unmarked) [Compound 6bp] it is 1 to 999 pM. Take `COC(=O)N[C@H](C(=O)N1CCCC1c1nc2cc(-c3ccc4c(c3)C(F)(F)c3cc(-c5c[nH]c([C@@H]6C=CCN6C(=O)[C@@H](NC(=O)OC)C(C)C)n5)ccc3-4)ccc2[nH]1)C(C)C` (some centres unmarked) [Compound 6bq]: the EC50 lay in the range of 1 to 999 pM.
